Read-outs that look alike come from different tables or passages of the source.
How the values were obtained:
[1] = test system: transfer of LDL-derived cholesterol from lysosomes to ER in CHO-7 cells; format: cell-based, hamster
NPC1 = NPC1 (Cricetulus griseus, UniProt Q9JLG3); format: binding, hamster
[2] = test system: SREBP-2 cleavage in CHO-7 cells; format: cell-based, hamster
purified NPC1 = purified NPC1 (Homo sapiens, UniProt O15118); format: binding
NPC1L1 = NPC1L1 (Homo sapiens, UniProt Q9UHC9); format: binding
NPC1L1, sequence (Q9UHC9 22-1359): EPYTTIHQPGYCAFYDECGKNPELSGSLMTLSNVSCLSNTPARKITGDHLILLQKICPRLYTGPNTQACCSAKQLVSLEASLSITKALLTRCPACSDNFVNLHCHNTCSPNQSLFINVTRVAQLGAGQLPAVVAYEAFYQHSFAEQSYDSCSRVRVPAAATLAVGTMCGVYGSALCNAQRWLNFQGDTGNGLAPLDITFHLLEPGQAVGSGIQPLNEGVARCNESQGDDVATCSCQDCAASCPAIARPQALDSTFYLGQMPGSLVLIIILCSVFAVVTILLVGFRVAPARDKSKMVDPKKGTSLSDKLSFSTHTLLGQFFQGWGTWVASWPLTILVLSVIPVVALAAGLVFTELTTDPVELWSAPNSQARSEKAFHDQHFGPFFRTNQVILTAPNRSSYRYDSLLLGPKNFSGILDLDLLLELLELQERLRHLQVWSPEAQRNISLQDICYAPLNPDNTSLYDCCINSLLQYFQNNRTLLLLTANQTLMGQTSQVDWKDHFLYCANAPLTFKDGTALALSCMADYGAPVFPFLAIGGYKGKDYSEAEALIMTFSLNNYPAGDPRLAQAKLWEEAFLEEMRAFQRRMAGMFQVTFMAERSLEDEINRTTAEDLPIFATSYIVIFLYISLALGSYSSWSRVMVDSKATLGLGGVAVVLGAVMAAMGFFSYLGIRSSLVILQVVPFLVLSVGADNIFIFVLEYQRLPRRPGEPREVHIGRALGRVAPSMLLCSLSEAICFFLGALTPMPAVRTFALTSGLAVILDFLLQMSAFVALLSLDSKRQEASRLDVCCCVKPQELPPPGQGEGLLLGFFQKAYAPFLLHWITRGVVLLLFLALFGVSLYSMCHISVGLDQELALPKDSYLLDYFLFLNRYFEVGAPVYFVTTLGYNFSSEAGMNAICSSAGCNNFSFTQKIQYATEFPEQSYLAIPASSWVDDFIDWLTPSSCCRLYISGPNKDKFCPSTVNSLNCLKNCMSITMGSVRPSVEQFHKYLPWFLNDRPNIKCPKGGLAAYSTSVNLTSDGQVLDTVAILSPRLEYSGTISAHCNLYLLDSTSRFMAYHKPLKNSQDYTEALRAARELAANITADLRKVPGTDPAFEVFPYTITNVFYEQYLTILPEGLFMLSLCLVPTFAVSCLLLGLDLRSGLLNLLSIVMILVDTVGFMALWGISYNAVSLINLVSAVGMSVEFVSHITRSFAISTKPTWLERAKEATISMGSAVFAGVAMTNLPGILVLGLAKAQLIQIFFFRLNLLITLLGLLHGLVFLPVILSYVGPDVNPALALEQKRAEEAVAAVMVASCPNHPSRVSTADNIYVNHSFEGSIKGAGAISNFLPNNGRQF

wild-type human NPC1 = wild-type human NPC1 (Homo sapiens, UniProt O15118); format: binding
wild-type human NPC1, sequence (O15118 23-1278): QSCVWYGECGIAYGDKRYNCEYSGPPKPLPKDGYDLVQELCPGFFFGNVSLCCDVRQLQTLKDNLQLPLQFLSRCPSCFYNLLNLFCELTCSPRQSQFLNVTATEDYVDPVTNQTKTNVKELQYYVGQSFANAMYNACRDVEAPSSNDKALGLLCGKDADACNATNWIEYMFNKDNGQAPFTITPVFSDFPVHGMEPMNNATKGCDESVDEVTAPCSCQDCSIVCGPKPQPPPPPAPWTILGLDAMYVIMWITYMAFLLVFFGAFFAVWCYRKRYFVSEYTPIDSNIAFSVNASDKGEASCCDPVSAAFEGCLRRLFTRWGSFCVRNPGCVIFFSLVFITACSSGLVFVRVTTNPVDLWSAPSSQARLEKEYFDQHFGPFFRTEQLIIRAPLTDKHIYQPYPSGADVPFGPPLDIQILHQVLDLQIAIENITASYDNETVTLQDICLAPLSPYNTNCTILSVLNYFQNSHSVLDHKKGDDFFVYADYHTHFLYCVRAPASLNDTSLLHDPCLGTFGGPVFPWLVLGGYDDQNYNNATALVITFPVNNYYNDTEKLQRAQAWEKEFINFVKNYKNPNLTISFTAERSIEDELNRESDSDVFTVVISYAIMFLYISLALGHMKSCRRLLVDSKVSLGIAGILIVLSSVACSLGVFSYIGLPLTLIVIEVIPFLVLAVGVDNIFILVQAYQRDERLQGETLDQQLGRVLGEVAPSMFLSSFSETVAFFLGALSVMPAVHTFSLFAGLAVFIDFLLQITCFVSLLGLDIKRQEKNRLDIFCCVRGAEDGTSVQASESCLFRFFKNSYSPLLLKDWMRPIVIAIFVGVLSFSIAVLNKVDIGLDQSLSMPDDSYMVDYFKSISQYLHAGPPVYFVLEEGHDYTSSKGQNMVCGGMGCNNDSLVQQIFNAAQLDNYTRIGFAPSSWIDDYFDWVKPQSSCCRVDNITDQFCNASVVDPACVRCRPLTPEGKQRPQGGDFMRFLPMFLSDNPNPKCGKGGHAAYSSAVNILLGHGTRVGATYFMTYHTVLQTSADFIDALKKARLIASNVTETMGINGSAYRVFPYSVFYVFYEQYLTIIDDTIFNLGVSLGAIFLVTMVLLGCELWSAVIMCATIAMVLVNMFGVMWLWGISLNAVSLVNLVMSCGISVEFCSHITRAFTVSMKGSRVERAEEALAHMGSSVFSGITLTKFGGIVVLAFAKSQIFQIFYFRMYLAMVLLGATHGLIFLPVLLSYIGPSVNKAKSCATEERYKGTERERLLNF

[3] = test system: lysosomal degradation of 125I-LDL in CHO-7 cells; format: cell-based, hamster
[4] = test system: TR-4139 cells (CHO-7 cells stably expressing excess human NPC1); format: cell-based, hamster
NTD of recombinant NPC1 = details: cited from earlier work
ER membranes = format: biochemical
[5] = test system: cholesterol egress from lysosomes; details: cited from earlier work
Ebola virus [6] = format: cell-based
[7] = test system: cholesterol esterification stimulated by 25-hydroxycholesterol; format: cell-based
Ebola virus [8] = details: cited from earlier work
[9] = read-out: Inhibitory constant (Ki): concentration inhibiting incorporation of [14C]oleate into cholesteryl [14C]oleate by 50%
[10] = read-out: Ki for inhibition of esterification of LDL-derived cholesterol

NPC1, sequence (Q9JLG3 23-1277 limits assumed): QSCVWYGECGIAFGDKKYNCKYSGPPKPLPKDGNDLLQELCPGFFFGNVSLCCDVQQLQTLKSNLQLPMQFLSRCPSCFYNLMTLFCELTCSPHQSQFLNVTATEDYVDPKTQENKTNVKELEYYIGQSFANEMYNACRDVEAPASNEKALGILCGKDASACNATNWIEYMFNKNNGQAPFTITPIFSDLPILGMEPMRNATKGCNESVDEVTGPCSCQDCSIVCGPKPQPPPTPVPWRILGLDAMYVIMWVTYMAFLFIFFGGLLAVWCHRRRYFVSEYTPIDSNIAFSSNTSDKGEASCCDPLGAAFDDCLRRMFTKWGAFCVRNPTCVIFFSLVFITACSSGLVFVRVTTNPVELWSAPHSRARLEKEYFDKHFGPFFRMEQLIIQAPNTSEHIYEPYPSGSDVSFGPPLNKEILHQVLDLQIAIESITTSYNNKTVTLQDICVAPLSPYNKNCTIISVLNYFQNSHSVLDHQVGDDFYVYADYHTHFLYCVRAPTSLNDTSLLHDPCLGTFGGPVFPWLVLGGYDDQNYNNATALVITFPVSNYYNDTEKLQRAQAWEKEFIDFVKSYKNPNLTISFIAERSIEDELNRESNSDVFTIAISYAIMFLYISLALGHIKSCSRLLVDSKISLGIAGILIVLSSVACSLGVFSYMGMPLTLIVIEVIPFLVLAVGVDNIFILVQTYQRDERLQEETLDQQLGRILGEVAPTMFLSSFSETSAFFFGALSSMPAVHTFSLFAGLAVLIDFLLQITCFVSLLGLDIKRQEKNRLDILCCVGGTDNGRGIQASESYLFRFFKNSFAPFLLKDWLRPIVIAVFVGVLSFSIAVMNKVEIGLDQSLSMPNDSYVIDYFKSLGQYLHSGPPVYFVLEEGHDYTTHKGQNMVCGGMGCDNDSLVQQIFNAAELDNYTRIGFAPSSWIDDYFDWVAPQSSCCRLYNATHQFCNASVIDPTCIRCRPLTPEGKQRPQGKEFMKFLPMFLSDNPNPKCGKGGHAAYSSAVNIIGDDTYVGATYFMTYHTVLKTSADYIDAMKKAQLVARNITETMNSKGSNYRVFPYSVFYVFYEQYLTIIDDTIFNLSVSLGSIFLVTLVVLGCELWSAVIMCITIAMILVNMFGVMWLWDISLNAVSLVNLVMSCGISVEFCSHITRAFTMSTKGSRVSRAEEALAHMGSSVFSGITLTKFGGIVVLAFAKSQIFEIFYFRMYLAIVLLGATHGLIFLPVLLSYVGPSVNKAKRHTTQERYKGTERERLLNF
purified NPC1, sequence (O15118 23-1278): as the sequence (O15118 23-1278) above

## CCCN(CCOC1CCC2(C)C(=CCC3C4CCC(=O)C4(C)CCC32)C1)Cc1cn(CCCCCCOC(=O)CCCCC2SCC3NC(=O)NC32)nn1 (stereo not drawn) [compound C]
[1]; [9]
  Ki: 20 nM
NPC1
  competition of U-X crosslinking to NPC1, immunoprecipitation: blocked

## CCCN(CCOC1CCC2(C)C(=CCC3C4CCC(=O)C4(C)CCC32)C1)Cc1cn(-c2cccnc2)nn1 (stereo not drawn) [compound B]
[1]; [9]
  Ki: 10 nM
NPC1
  competition of U-X crosslinking to NPC1, immunoprecipitation: blocked

## CCN(CC)CCOC1CCCCC1 [compound E]
[1]; [9]
  Ki: > 10000 nM
NPC1
  competition of U-X crosslinking to NPC1, immunoprecipitation: not inhibited

## CCC(CC)CCOC1CCC2(C)C(=CCC3C2CCC2(C)C3CCC2N(C)C)C1 (stereo not drawn) [compound A]
[1]
  fold less active than U18666A in the cholesterol esterification assay: ~100 fold
[1]; [9]
  Ki: 4500 nM
physchem
  pKa: 10.2
NPC1
  competition of U-X crosslinking to NPC1, immunoprecipitation: not inhibited
  competition of U-X crosslinking to the 190-kDa protein (NPC1), in-gel fluorescence: not
[2]
  effect on the FCS-induced reduction of nuclear SREBP-2: no activity

## C#CCOc1ccc(C(=O)c2ccc(C(=O)OCCN(CC)CCOC3CCC4(C)C(=CCC5C6CCC(=O)C6(C)CCC54)C3)cc2)cc1 (stereo not drawn) [U-X]
[1]
  effect on lysosomal exit of cholesterol (incorporation of [14C]oleate into cholesteryl [14C]oleate): inhibited the lysosomal exit of cholesterol
[1]; [9]
  Ki: 60 nM
Purified NPC1
  crosslinking to purified NPC1: unable to crosslink
NPC1
  crosslinking to NPC1: crosslinks
NPC1L1
  crosslinking to NPC1L1: did not crosslink
[2]
  effect on the FCS-induced reduction of nuclear SREBP-2: blocked
wild-type human NPC1
  fluorescent NPC1 after UV crosslinking of U-X: detected
[3]
  effect on degradation of 125I-LDL (125I-monoiodotyrosine released into medium): did not inhibit degradation

## CCN(CC)CCOC1CCC2(C)C(=CCC3C4CCC(=O)C4(C)CCC32)C1 (stereo not drawn) [U18666A, 3-beta-[2-(diethylamino)ethoxy]androst-5-en-17-one, reference compound]
[4]
  rise of the threshold for U18666A inhibition by overexpression of NPC1: more than 100 fold
[4]; [10]
  Ki: 2700 nM
NTD of recombinant NPC1
  effect on binding of [3H]25-hydroxycholesterol to the NTD of recombinant NPC1: does not block binding
[1]
  concentration at which transport of LDL-derived cholesterol from lysosomes to ER is inhibited (as low as): 0.03 µM
  effect on lysosomal exit of cholesterol (incorporation of [14C]oleate into cholesteryl [14C]oleate): inhibited the lysosomal exit of cholesterol
[1]; [9]
  Ki: 30 nM
[1]; [10]
  Ki: 20 nM
ER membranes
  effect on cholesteryl [14C]oleate formation when cholesterol is added to ER membranes in vitro: does not inhibit
physchem
  pKa: 9.41
[5]
  fold more potent than imipramine: more than 100 fold
NPC1
  competition of U-X crosslinking to NPC1, immunoprecipitation: blocked
  competition of U-X crosslinking to the 190-kDa protein (NPC1), in-gel fluorescence: disappeared
[2]
  effect on the FCS-induced reduction of nuclear SREBP-2: prevented this reduction
wild-type human NPC1
  competition of U-X crosslinking to transfected wild-type NPC1: competed
Ebola virus [6]
  fold higher concentration required for inhibition of Ebola than for inhibition of cholesterol export: 100 fold
[3]
  effect on degradation of 125I-LDL (125I-monoiodotyrosine released into medium): did not inhibit degradation
[7]
  effect on cholesterol esterification stimulated by 25-hydroxycholesterol: did not block
Ebola virus [8]
  concentrations of U18666A required to inhibit Ebola virus infection: 3 to 12 µM

## CCN(CC)CCCC(C)Nc1ccnc2cc(Cl)ccc12 (stereo not drawn) [chloroquine, reference compound]
[1]
  effect on release of LDL-derived cholesterol (cholesterol esterification): blocked
[3]
  effect on degradation of 125I-LDL (125I-monoiodotyrosine released into medium): blocked the degradation

## CCC(CC)CCOC1CCC2(C)C(=CCC3C4CCC(=O)C4(C)CCC32)C1 (stereo not drawn) [compound D]
[1]; [9]
  Ki: 4700 nM
NPC1
  competition of U-X crosslinking to NPC1, immunoprecipitation: not inhibited

From article PMC4718804 (eLife, 2015)
